Laboratory results as given in article PMC8312697, “Mechanistic Investigations Support Liver Safety of Ubrogepant” (Toxicological Sciences, 2020).
≈ marks a conversion by molar mass, not a printed value. Like-named read-outs stand apart in the source and are kept apart here.

Key:
BSEP = target: T1, BSEP (Homo sapiens, UniProt O95342); assay: BSEP vesicular transport inhibition assay; assay type: biochemical; details: for Vmax of taurocholate: BSEP vesicle assay; for alpha (mixed inhibition model): BSEP; for BSEP inhibition type: from Km and Vmax changes / model fit; for inhibition of BSEP-mediated probe substrate transport: vesicular transport inhibition assay
T1 construct: Solvo Biotechnology (Szeged, Hungary), contract laboratory that ran the assay
Protocol: These assays were conducted by Solvo Biotechnology and overseen by DSSI.
(§1) To assess the functional impact of ubrogepant on the human ABC efflux transporters BSEP, MRP3, and MRP4, in vitro vesicular transport inhibition assays were conducted by Solvo Biotechnology (Szeged, Hungary). The ability of ubrogepant to inhibit the BSEP-mediated transport (and accumulation) of a probe substrate was tested at concentrations ranging from 0.04 – 30 μM, where the latter defined the upper limit of compound solubility in the BSEP assay buffer. For the MRP3 and MRP4 vesicle-based transporter assessments, ubrogepant concentrations of 0.1 to 70 μM were used. To assess the functional impact of ubrogepant on the human SLC (uptake) transporter NTCP, in vitro experiments were performed using HEK293 cells stably expressing NTCP. The ability of ubrogepant to inhibit NTCP-mediated uptake (and accumulation) of taurocholate was tested at concentrations ranging from 0.04 – 30 μM.
In the current project, additional assays were conducted to determine the Ki value and inhibition type for ubrogepant for BSEP-mediated bile acid transport. These assays were conducted by Solvo Biotechnology and overseen by DSSI. Briefly, BSEP inhibition studies were performed with multiple substrate concentrations (0.39 – 50 µM taurocholate) and multiple inhibitor concentrations (0.5 – 30 µM ubrogepant). Ki and inhibition type for ubrogepant were determined by fitting a mixed inhibition model to the untransformed data by nonlinear regression analysis. It was assumed that inhibition type for ubrogepant for other transporters (i.e., MRP3 and MRP4) was mixed with α= 5; this is a typical value for bile acid transporter inhibitors in the experience of the DSS team.
(§2) To assess the functional impact of MK-3207 on the human ABC efflux transporters BSEP, MRP3 and MRP4, in vitro vesicular transport inhibition assays were conducted by Solvo Biotechnology (Szeged, Hungary) and overseen by DSSI. BSEP transport was assessed in the presence of 0.5-30 µM MK-3207; MRP3 and MRP4 transport was assessed in the presence of 0.11-80 µM MK-3207. The upper limits of these ranges were determined by compound solubility in each assay buffer. NTCP transporter inhibition was assessed in NTCP-expressing HEK293 cells in the presence of 0.03 – 25 µM MK-3207.
In these experiments, taurocholic acid (TCA) transport was assessed at a range of MK-3207 concentrations (0.04 – 30 µM) as well as at a range of TCA media concentrations (0.39 – 50 µM). A Ki was then determined by fitting a mixed inhibition model to the inhibition data by nonlinear regression analysis.

[1] = Compound solubility limit in transporter assay buffer; assay type: physicochemical; details: read-out: upper limit of compound solubility
Protocol: as §1, §2

[2] = tested on: mitochondrial electron transport chain (ETC); assay: MITOsym/DILIsym fit of OCR data (ETC inhibition parameters); set-up: species or system human; details: for DILIsym ETC inhibition constant: MITOsym value × scaling factor of 34.7
Protocol: MITOsym® parameters were then translated to DILIsym® parameters using a scaling factor calculated using classic exemplar compounds that perturb different pathways of mitochondrial respiration (e.g., rotenone for ETC inhibition, FCCP for uncoupling).
The parameter values for ubrogepant were determined by reproducing the cell count-corrected OCR data in MITOsym®, a mechanistic model of mitochondrial function in the in vitro setting. MITOsym parameters were then translated to DILIsym parameters using a scaling factor calculated using classic exemplar compounds that perturb different pathways of mitochondrial respiration (e.g., rotenone for ETC inhibition, FCCP for uncoupling).
Mitochondrial toxicity parameter values for MK-3207 were determined by reproducing the cell count-corrected OCR response to MK-3207 dosing in both MITOsym and DILIsym. The ETC inhibition coefficient from the MITOsym parameters was then translated to a DILIsym parameter using a scaling factor calculated using classic exemplar compounds that perturb different pathways of mitochondrial respiration (e.g., rotenone for ETC inhibition, FCCP for uncoupling), similar to ubrogepant. The maximum inhibition potency from the DILIsym fit was combined with this value in the final parameter set.

[3] = mixed inhibition model, nonlinear regression
[4] = MRP3 and MRP4 assay buffer, aqueous buffer

T1 sequence (O95342 whole entry): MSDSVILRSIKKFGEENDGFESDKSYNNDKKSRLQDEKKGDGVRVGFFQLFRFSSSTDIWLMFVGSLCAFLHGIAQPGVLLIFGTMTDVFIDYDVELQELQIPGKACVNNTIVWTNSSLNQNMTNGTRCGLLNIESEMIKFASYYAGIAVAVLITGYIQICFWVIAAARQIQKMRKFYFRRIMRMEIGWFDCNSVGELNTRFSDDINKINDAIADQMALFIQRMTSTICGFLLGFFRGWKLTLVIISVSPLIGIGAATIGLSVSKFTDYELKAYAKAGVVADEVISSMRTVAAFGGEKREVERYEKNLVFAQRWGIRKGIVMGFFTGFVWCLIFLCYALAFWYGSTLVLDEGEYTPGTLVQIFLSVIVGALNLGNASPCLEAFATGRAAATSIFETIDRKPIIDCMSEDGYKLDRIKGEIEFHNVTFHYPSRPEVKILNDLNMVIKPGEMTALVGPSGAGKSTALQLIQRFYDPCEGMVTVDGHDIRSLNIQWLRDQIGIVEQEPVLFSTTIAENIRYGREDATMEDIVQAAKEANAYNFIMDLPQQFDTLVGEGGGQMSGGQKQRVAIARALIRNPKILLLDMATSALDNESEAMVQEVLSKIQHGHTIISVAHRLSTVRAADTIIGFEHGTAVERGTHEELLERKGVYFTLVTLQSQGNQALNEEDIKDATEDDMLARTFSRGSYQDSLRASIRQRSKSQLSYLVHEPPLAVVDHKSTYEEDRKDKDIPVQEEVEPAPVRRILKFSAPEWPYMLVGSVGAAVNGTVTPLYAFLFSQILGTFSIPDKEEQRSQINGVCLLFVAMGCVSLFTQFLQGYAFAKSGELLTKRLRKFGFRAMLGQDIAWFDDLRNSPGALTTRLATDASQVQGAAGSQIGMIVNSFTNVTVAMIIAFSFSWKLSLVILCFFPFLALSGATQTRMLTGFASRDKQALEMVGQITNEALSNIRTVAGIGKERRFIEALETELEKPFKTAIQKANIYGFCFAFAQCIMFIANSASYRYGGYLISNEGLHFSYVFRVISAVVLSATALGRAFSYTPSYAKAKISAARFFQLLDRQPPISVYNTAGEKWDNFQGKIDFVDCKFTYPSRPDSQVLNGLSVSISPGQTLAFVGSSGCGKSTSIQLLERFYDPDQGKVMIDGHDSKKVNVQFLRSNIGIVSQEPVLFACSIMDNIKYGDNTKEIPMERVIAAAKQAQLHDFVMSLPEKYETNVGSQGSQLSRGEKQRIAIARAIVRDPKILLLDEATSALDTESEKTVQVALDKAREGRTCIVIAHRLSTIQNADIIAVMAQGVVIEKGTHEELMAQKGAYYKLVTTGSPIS

Compound `C[C@@H]1[C@H](c2ccccc2)C[C@H](NC(=O)c2cnc3c(c2)C[C@@]2(C3)C(=O)Nc3ncccc32)C(=O)N1CC(F)(F)F` [Ubrogepant] has a Vmax of taurocholate (BSEP; inhibitor 0.5 µM) of 181.3 pmol/mg protein/min, a Vmax of taurocholate (BSEP; inhibitor 2.5 µM) of 175.6 pmol/mg protein/min and a Vmax of taurocholate (BSEP; inhibitor 5 µM) of 171.3 pmol/mg protein/min. The Vmax of taurocholate (BSEP; inhibitor 15 µM) was 171.9 pmol/mg protein/min, the Vmax of taurocholate (BSEP; inhibitor 30 µM) was 172.3 pmol/mg protein/min and the “alpha (mixed inhibition model)” value (BSEP; mixed inhibition model) was 8.39. The BSEP inhibition type (BSEP) was “likely to be a mixed BSEP inhibitor”, the Ki (BSEP; [3]) was 38.1 µM and the “inhibition of BSEP-mediated probe substrate transport” value (BSEP) was “inhibited”. The solubility ([1]; BSEP assay buffer, aqueous buffer) was 30 µM (≈ 16.5 µg/mL), the solubility [1, 4] was 70 µM (≈ 38.5 µg/mL) and the “DILIsym ETC inhibition constant” value [2] was 472 µM. The “MITOsym ETC inhibition constant” value ([2]; fit of 24-hour HepG2 OCR data) was 0.0136 mM.

`O=C(N[C@@H]1CC[C@@H](c2cccc(F)c2F)CN(CC(F)(F)F)C1=O)N1CCC(n2c(=O)[nH]c3ncccc32)CC1` [Telcagepant] gave a Vmax of taurocholate (BSEP; inhibitor 2.5 µM) of 186.3 pmol/mg protein/min, a Vmax of taurocholate (BSEP; inhibitor 5 µM) of 208.1 pmol/mg protein/min and a Vmax of taurocholate (BSEP; inhibitor 10 µM) of 77.52 pmol/mg protein/min. For the same compound, the Vmax of taurocholate (BSEP; inhibitor 20 µM) was 119.7 pmol/mg protein/min, the “alpha (mixed inhibition model)” value (BSEP; mixed inhibition model) was 4.6 and the BSEP inhibition type (BSEP) was “likely to be a mixed BSEP inhibitor”. The Ki (BSEP; [3]) was 7.9 µM, the “inhibition of BSEP-mediated probe substrate transport” value (BSEP) was “inhibited” and the IC50 (BSEP; vesicular transport, taurocholate, read-out: BSEP estimated IC50) was 10.2 µM. The BSEP inhibition (BSEP; vesicular transport, up to 20 µM) was > 50%, the solubility ([1]; aqueous buffer, BSEP, MRP3, MRP4 vesicular transport assays) was 20 µM (≈ 11.3 µg/mL) and the “DILIsym ETC inhibition constant” value [2] was 17400 µM. For the same compound, the “MITOsym ETC inhibition constant” value ([2]; fit of 1 hour HepG2 OCR data) was 0.5 mM.

For `O=C(CN1C(=O)C2(CCCC2)NC[C@H]1c1cc(F)cc(F)c1)Nc1ccc2c(c1)C[C@@]1(C2)C(=O)Nc2ncccc21` [MK-3207], the Vmax of taurocholate (BSEP; inhibitor 0.5 µM) was 171.9 pmol/mg protein/min, the Vmax of taurocholate (BSEP; inhibitor 2.5 µM) was 183.1 pmol/mg protein/min and the Vmax of taurocholate (BSEP; inhibitor 5 µM) was 174.9 pmol/mg protein/min. For the same compound, the Vmax of taurocholate (BSEP; inhibitor 15 µM) was 132.5 pmol/mg protein/min, the Vmax of taurocholate (BSEP; inhibitor 30 µM) was 151.7 pmol/mg protein/min and the Ki (BSEP; competitive inhibition model) was 7.62 µM. For the same compound, the BSEP inhibition type (BSEP) was “competitive model is presumed to be the most likely mode of inhibition”, the “inhibition of BSEP-mediated probe substrate transport” value (BSEP) was “inhibited” and the solubility ([1]; BSEP assay buffer) was 30 µM (≈ 16.7 µg/mL). The solubility [1, 4] was 80 µM (≈ 44.6 µg/mL), the “maximal inhibition value (ETC)” value ([2]; DILIsym fit of HepG2 OCR data) was 0.35 and the ETC inhibition coefficient ([2]; MITOsym constant translated into DILIsym, 1-hour and 24-hour HepG2 OCR data) was 0.347 µM.
